Results: patent US11413266B2, “Use of cannabinoids in the treatment of inflammatory skin diseases” (GW Pharma Limited, priority 2015, dated 2022)

Legend:
MCP-2 = MCP-2 ELISA in supernatants of poly-(I:C)-stimulated HaCaT cells; format: cell-based, human; details: poly-(I:C)-stimulated HaCaT; for MCP-2 production: 6 h; for MCP-2 protein levels: all tested at 5, 10 and 20 μM, data not shown
IL6 [1] = assay: PolyIC-induced IL6 release in NHEK keratinocytes, ELISA; format: cell-based, human; details: NHEKs; for PolyIC-induced elevated release of IL6: concentration not singled out (0.3 and 3 μM tested); for TLR3-activation induced augmented release of IL6: higher concentration
IL8 [2] = assay: PolyIC-induced IL8 release in NHEK keratinocytes, ELISA; format: cell-based, human; details: NHEKs; for TLR3-activation induced augmented release of IL8: higher concentration
[3] = test system: human epidermal keratinocytes; assay: Summary score, TLR3-induced inflammation model (microbial infection-induced dermatitis); format: cell-based
IL6 [4] = assay: UVB-induced IL6 mRNA expression in HaCaT keratinocytes, RT-qPCR; format: cell-based, human
IL6 [5] = assay: UVB-induced IL6 release in HaCaT keratinocytes, ELISA; format: cell-based, human
IL8 [6] = assay: UVB-induced IL8 mRNA expression in HaCaT keratinocytes, RT-qPCR; format: cell-based, human
IL8 [7] = assay: UVB-induced IL8 release in HaCaT keratinocytes, ELISA; format: cell-based, human
IL8 [8] = assay: UVB-induced IL8 release in NHEK keratinocytes, ELISA; format: cell-based, human; details: NHEKs; only at given (mostly lower) concentrations
[9] = test system: human epidermal keratinocytes; assay: Summary score, UVB-induced inflammation model (solar dermatitis); format: cell-based
IL8 [10] = assay: SEB/TSLP-induced IL8 release in HPV-Ker keratinocytes, ELISA; format: cell-based, human; details: lower concentrations
HPV-Ker keratinocytes = assay: Summary score, SEB/TSLP-induced inflammation model (atopic dermatitis); format: cell-based, human; details: for SCORE: sum of +1 anti-inflammatory, 0 no effect, −1 pro-inflammatory, Table 3; for Overall action in the SEB/TSLP-induced inflammation model: conclusion on Table 3
IL6 [11] = assay: UVB-induced IL6 release in NHEK keratinocytes, ELISA; format: cell-based, human; details: NHEKs; for UVB-upregulated expression of IL6: only at given (mostly lower) concentrations; for UVB-upregulated IL6: higher concentrations
IL6 [12] = assay: PolyIC-induced IL6 release in HPV-Ker keratinocytes, ELISA; format: cell-based, human; details: HPV-KER cells
[13] = test system: ACD in 2,4-dinitrofluorobenzene (DNFB)-treated wild-type mice; details: Karsak et al. 2007, cited from earlier work
[14] = concentration not singled out (0.3 and 3 μM tested)
[15] = 0.3 μM, sum of +1 anti-inflammatory, 0 no effect, −1 pro-inflammatory, Table 1
[16] = 3 μM, sum of +1 anti-inflammatory, 0 no effect, −1 pro-inflammatory, Table 1
[17] = 0.3 μM, sum of +1 anti-inflammatory, 0 no effect, −1 pro-inflammatory, Table 2
[18] = 3 μM, sum of +1 anti-inflammatory, 0 no effect, −1 pro-inflammatory, Table 2

Row | Compound | MCP-2 production (MCP-2; 5 μM) | MCP-2 production (MCP-2; 10 μM) | MCP-2 production (MCP-2; 20 μM) | PolyIC-induced elevated release of IL6 (IL6 [1]) | PolyIC-induced elevated release of IL8 (IL8 [2]; [14]) | SCORE [3, 15] | SCORE [3, 16] | UVB-upregulated IL6 (RT-qPCR) (IL6 [4]; 0.3 μM) | UVB-upregulated IL6 (ELISA) (IL6 [5]; 0.3 μM) | UVB-upregulated IL8 (RT-qPCR) (IL8 [6]; 0.3 μM) | UVB-upregulated IL8 (RT-qPCR) (IL8 [6]; 3 μM) | UVB-upregulated IL8 (ELISA) (IL8 [7]; 0.3 μM) | UVB-upregulated IL8 (ELISA) (IL8 [7]; 3 μM) | SCORE [9, 17] | SCORE [9, 18] | SCORE (HPV-Ker keratinocytes; 0.3 μM) | SCORE (HPV-Ker keratinocytes; 3 μM) | MCP-2 protein levels (MCP-2) | UVB-upregulated IL6 (RT-qPCR) (IL6 [4]; 3 μM) | UVB-upregulated IL6 (ELISA) (IL6 [5]; 3 μM) | further results
1 | CCCCCc1cc(O)c2c(c1)OC(C)(CCC=C(C)C)C=C2 (stereo not drawn) [CBC, cannabichromene] | no effect | no effect | able to reduce | – | – | – | – | – | – | – | – | – | – | – | – | – | – | – | – | – | –
2 | C=C(C)[C@@H]1CCC(C)=C[C@H]1c1c(O)cc(CCCCC)c(C(=O)O)c1O [CBDA, Cannabidiolic acid] | – | – | – | dose-dependent suppression | dose-dependent suppression | 7 | 10 | pro-inflammatory effects | pro-inflammatory effects | pro-inflammatory effects | pro-inflammatory effects | pro-inflammatory effects | pro-inflammatory effects | 1 | −1 | 0 | 1 | No effect | – | – | UVB-upregulated expression of IL8 (IL8 [8]): significantly suppress; SEB/TSLP-induced up-regulation of IL8 release (IL8 [10]): did not induce any significant effect; Overall action in the SEB/TSLP-induced inflammation model (HPV-Ker keratinocytes): most effective
3 | C=C(C)[C@@H]1CCC(C)=C[C@H]1c1c(O)cc(CCC)cc1O [CBDV, Cannabidivarin] | – | – | – | did not affect | – | – | – | anti-inflammatory effects | – | – | anti-inflammatory effects | – | anti-inflammatory effects | – | – | 0 | 1 | – | anti-inflammatory effects | anti-inflammatory effects | TLR3-activation induced augmented release of IL8 (IL8 [2]): significantly further augmented; SCORE ([3]; 0.3 µM): 7; SCORE ([3]; 3 µM): 5; UVB-upregulated expression of IL6 (IL6 [11]): significantly suppress; SCORE ([9]; 0.3 µM): 2; SCORE ([9]; 3 µM): 5; SEB/TSLP-induced up-regulation of IL8 release (IL8 [10]): did not induce any significant effect; Overall action in the SEB/TSLP-induced inflammation model (HPV-Ker keratinocytes): most effective
4 | C=C(C)[C@@H]1CCC(C)=C[C@H]1c1c(O)cc(CCC)c(C(=O)O)c1O [CBDVA, cannabidivarinic acid] | – | – | – | – | – | – | – | – | – | – | – | – | – | – | – | – | – | No effect | – | – | –
5 | CCCCCc1cc(O)c(C/C=C(\C)CCC=C(C)C)c(O)c1 [CBG, Cannabigerol] | no effect | no effect | able to reduce | dose-dependent suppression | dose-dependent suppression | 5 | 9 | anti-inflammatory effects | – | – | – | – | pro-inflammatory effects | 2 | 3 | 0 | 1 | – | anti-inflammatory effects | anti-inflammatory effects | UVB-upregulated IL6 (IL6 [11]): pro-inflammatory effects; UVB-upregulated expression of IL8 (IL8 [8]): significantly suppress; SEB/TSLP-induced up-regulation of IL8 release (IL8 [10]): did not induce any significant effect; Overall action in the SEB/TSLP-induced inflammation model (HPV-Ker keratinocytes): most effective
6 | CCCCCc1cc(O)c(C/C=C(\C)CCC=C(C)C)c(O)c1C(=O)O [CBGA, cannabigerolic acid] | – | – | – | – | – | – | – | – | – | – | – | – | – | – | – | – | – | No effect | – | – | –
7 | CCCc1cc(O)c(C/C=C(\C)CCC=C(C)C)c(O)c1 [CBGV, Cannabigervarin] | – | able to reduce | – | – | did not affect | 5 | 5 | anti-inflammatory effects | pro-inflammatory effects | pro-inflammatory effects | pro-inflammatory effects | pro-inflammatory effects | pro-inflammatory effects | −1 | 2 | −1 | 1 | – | anti-inflammatory effects | anti-inflammatory effects | PolyIC-induced IL6 levels (IL6 [12]; 0.3 μM): did not affect; TLR3-activation induced augmented release of IL6 (IL6 [12]; 3 μM): significantly further augmented; TLR3-activation induced augmented release of IL6 (IL6 [1]): significantly further augmented; UVB-upregulated expression of IL6 (IL6 [11]): significantly suppress
8 | CCCCCc1cc(O)c2c(c1)OC(C)(C)[C@@H]1CCC(C)=C[C@@H]21 [THC, tetrahydrocannabinol] | – | – | – | – | – | – | – | – | – | – | – | – | – | – | – | – | – | – | – | – | ACD ([13]; subcutaneous and topical application): attenuated; ear swelling ([13]; vs untreated mice): significantly decreased; recruitment of Gr-1 positive granulocytes ([13]; vs untreated mice): reduced
9 | CCCc1cc(O)c2c(c1)OC(C)(C)[C@@H]1CCC(C)=C[C@@H]21 [THCV, Tetrahydrocannabivarin] | no effect | able to reduce | able to reduce | – | – | 7 | 7 | – | anti-inflammatory effects | anti-inflammatory effects | – | anti-inflammatory effects | pro-inflammatory effects | 4 | 0 | −1 | 1 | – | anti-inflammatory effects | pro-inflammatory effects | TLR3-activation induced augmented release of IL6 (IL6 [1]): significantly further augmented; PolyIC-induced IL6 level (IL6 [1]; low concentration): did not affect; TLR3-activation induced augmented release of IL8 (IL8 [2]): did not affect; PolyIC-induced elevated release of IL8 (IL8 [2]; low concentration): significantly suppressed; UVB-upregulated IL6 (IL6 [11]): pro-inflammatory effects
10 | CCCc1cc2c(c(O)c1C(=O)O)[C@@H]1C=C(C)CC[C@H]1C(C)(C)O2 [THCVA, tetrahydrocannabivarinic acid] | – | – | – | – | – | – | – | – | – | – | – | – | – | – | – | – | – | No effect | – | – | –
